Experimental findings from ChEMBL document CHEMBL1201862, “PubChem BioAssay data set” (2004) are described below.

SMILES strings stand for the structures. Calls of active or inactive are those of the source.

Experiment [1] has as its target Eukaryotic translation initiation factor 4E (Mus musculus, UniProt P63073). Description: blockers of eIF4G binding by eIF4E – biochemical, TR-FRET, dose response (AID 855).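 Note: potency for disrupting eIF4E binding to eIF4GI seen as loss of FRET.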 The format is functional. (Time-resolved FRET reads energy transfer from a long-lived donor to a nearby acceptor.)
Experiment [2] concerns the target T1, Short transient receptor potential channel 4 (Mus musculus, UniProt Q9QUQ5).
T1 sequence (Q9QUQ5 whole entry): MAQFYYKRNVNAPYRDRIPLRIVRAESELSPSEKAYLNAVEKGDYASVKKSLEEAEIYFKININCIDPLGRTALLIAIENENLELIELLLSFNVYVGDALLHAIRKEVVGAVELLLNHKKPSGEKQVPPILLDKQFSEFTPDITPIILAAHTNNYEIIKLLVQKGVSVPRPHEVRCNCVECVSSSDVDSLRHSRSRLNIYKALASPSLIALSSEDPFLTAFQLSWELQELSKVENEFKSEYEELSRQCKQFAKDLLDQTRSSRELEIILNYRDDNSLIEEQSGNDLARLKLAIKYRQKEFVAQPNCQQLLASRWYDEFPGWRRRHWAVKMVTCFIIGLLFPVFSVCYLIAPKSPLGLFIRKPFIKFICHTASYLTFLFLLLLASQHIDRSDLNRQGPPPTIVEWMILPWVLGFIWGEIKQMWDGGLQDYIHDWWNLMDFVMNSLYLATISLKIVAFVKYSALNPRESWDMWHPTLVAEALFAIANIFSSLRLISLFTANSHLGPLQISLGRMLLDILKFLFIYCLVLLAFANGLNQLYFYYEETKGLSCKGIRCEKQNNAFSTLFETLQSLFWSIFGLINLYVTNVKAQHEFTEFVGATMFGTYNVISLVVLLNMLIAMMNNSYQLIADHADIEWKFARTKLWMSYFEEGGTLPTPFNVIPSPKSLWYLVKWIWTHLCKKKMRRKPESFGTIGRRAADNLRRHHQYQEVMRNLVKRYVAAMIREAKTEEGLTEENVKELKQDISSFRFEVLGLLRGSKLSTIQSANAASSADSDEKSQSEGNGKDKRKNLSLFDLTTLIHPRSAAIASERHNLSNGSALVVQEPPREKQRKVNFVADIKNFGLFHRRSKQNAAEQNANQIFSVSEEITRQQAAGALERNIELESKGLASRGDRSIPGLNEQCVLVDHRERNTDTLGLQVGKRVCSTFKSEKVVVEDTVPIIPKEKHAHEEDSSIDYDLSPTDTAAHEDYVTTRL
Description: block of DAMGO-driven TRPC4 calcium entry – cell-based, HEK293 TRPC4/mu-opioid, Fluo-4 calcium, dose response (AID 434942).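 Note: potency of inhibitors blocking the TRPC4 calcium response.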 The format is functional.

The nature of experiment [3]: A Cell Based Secondary Assay To Explore Cytotoxicity of Compounds that Sensitize Mycobacterium Tuberculosis to Beta-Lactam Antibiotics. The format is functional.
Experiment [4] in a line: blockers of CRF-binding protein–CRF-R2 complex – cell-based, uHTS hits, 384-well, dose response (AID 651639). The format is functional, Homo sapiens. Conditions: read-out: IC50_Mean.
Experiment [5] addresses T2, Corticotropin-releasing factor receptor 2/Corticotropin-releasing factor-binding protein (Homo sapiens, UniProt P24387+Q13324).
T2 sequence (Q13324 whole entry): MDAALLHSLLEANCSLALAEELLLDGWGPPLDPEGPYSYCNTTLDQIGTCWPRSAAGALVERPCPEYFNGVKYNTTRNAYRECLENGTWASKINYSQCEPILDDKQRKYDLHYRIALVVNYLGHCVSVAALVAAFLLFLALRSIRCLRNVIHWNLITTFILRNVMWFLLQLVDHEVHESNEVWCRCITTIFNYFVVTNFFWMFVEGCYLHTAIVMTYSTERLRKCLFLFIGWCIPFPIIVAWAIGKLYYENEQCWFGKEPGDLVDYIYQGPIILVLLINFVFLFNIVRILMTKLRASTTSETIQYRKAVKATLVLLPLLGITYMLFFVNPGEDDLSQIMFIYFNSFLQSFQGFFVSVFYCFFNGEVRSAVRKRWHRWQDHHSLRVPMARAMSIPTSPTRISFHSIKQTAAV
T2 sequence (P24387 whole entry): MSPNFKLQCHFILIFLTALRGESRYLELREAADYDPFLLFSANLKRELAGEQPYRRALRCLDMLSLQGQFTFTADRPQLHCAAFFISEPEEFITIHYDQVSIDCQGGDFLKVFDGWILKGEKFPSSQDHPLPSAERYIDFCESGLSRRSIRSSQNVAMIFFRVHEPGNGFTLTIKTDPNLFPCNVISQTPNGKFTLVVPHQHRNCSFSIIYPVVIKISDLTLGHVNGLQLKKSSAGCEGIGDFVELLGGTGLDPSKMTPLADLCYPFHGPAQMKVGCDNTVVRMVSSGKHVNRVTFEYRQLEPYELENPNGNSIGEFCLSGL
Description: Dose Response confirmation of uHTS hits for small molecule antagonists of the CRF-binding protein and CRF-R2 receptor complex. The format is functional. The settings on record: read-out: IC50_Mean.

Experiment [6] addresses T2, Corticotropin-releasing factor receptor 2/Corticotropin-releasing factor-binding protein. Description: activators of CRF receptor 2 with binding protein – uHTS hits, confirmation (AID 602473). The format is functional. The settings on record: read-out: EC50_Mean.
Experiment [7] can be described thus: Luminescence Cell-Based Dose Retest to Confirm Inhibitors of Cancer Stem Cells. [Related pubchem assays (depositor defined):AID2717, AID2721]. In kind it is functional. The settings on record: Homo sapiens.
The nature of experiment [8]: reduction of Shn3 3'UTR-driven luciferase in osteoblasts – cell-based, Clone20 osteoblasts, firefly luciferase, cherry-picked, dose response (AID 624132).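 Note: firefly luciferase luminescence from reporter carrying the Shn3 3'UTR in osteoblasts.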 In kind it is functional.
Experiment [9] can be described thus: non-specific 3'UTR reporter inhibition in Clone20-Shn3RL – cell-based, Renilla luciferase, cherry-picked, counter-screen for Shn3 inhibitor project, dose response (AID 624133). The format is functional. (Counterscreens check selectivity or assay interference.)
Experiment [10] has as its target T3, Streptokinase A (Streptococcus pyogenes serotype M1, UniProt P10520).
T3 sequence (P10520 whole entry): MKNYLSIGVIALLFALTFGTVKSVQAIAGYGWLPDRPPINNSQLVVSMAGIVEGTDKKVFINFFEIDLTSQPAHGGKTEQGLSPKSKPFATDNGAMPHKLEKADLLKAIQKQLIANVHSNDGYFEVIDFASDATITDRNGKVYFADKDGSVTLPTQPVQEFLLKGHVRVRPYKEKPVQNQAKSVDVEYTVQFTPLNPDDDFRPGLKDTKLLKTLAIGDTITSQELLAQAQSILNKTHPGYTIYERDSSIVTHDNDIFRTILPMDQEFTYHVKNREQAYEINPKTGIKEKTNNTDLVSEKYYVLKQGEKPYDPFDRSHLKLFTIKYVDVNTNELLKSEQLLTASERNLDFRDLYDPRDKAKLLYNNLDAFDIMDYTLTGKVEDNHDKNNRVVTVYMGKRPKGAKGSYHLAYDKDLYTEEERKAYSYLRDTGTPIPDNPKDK
Description: viability-normalized secreted streptokinase activity reduction – plasminogen activation absorbance, OD405, dose response (AID 1914).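 Note: secreted streptokinase activity via plasminogen activation per viability signal from cell pellet.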 In kind it is functional, Streptococcus pyogenes M1 GAS.

The nature of experiment [11]: NIH3T3 cell viability loss – ATP luminescence, mouse fibroblasts, counter-screen, dose response (AID 2010).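 Note: cells exposed to compound for about 90 hours before reading.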 The format is functional, cell-based.
In experiment [12] the test system is Streptococcus sp. 'group A'. Description: Streptococcus pyogenes SK(-)GAS viability under kanamycin – luminescence, BacTiterGlo, confirmation, counter-screen for streptokinase expression inhibitor project, dose response (AID 1900). The format is functional, organism-based.
The nature of experiment [13]: loss of viability in HepG2 cells – cell-based, CellTiter-Glo, cherry-picked, cytotoxicity control for Shn3 inhibitor project, dose response (AID 624134). In kind it is functional. In general terms: Cellular ATP, detected with luciferase, serves as a proxy for viable cell number.
A short description of experiment [14]: Trypanosoma cruzi growth suppression in host cells – NIH3T3 host cells, beta-gal luminescence, confirmation (AID 2044).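 Note: intracellular parasites grown in NIH/3T3 mouse fibroblasts as host cells; luminescent beta-galactosidase reporter signal from transgenic T. cruzi replicating inside host cells; inhibitors lower the luminescence signal.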 In kind it is functional, cell-based.
For experiment [15], the system named is Streptococcus. Description: GAS UMAA2166 growth inhibition – luminescence, BacTiterGlo, counter-screen for streptokinase expression inhibitor project, dose response (AID 1915).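 Note: potency for reduction of bacterial viability or growth.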 The format is functional, organism-based.

Chain of Eukaryotic translation initiation factor 4E (P63073 whole entry): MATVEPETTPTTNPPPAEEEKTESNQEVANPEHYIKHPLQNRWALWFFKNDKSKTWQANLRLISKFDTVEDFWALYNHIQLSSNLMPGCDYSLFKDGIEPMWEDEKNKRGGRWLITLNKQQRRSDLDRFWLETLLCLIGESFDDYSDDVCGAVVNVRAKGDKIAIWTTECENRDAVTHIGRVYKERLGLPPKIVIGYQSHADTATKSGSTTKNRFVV

As to `COc1cc(C2C(C(=O)c3ccccc3)=C(O)C(=O)N2c2ccccn2)ccc1O` (stereo not given), the IC50 in experiment [1] was 50 µM (inactive).

As for `Cc1ccc(OCC(COCc2ccccc2)NC(C)C)cc1` (stereo not given), in experiment [2], the EC50 is 3.76 µM (active).

In general, CC50 refers to the concentration giving 50% cytotoxicity. As to `CC(C)=CCC/C(C)=C/C=N/NC(=O)c1ccc([N+](=O)[O-])cc1`, the CC50 in [3] is > 40 µM (active).

For `COc1ccc(C2=NN(C(=O)c3ccccc3)C(c3ccc(OC)c(OC)c3)C2)c(O)c1` (stereo not given), the EC50 in experiment [2] is 9.44 µM (active).

With `CCN(CC)CCN(C(=O)c1ccccc1OC)c1nc2ccc(F)cc2s1`, in experiment [2], the EC50 is 2.11 µM (active).

On to `CC(C)N(Cc1nc(-c2ccccc2)no1)C(=O)COc1ccccc1`, for which the IC50 in [1] is > 64 µM (inactive).

Turning to `Cc1cc(CN2CCCC(C(=O)Nc3ccc(-c4nc5ccccc5[nH]4)cc3)C2)n[nH]1` (stereo not given), the EC50 in [2] was 0.0003 µM (active).

Turning to `Cc1ccc(C)c(N2CCN(S(=O)(=O)c3ccc4c(c3)C(C)(C)C(=O)N4C)CC2)c1`, the IC50 was 9.45 µM (active) in [4] and 38.6 µM (active) in experiment [5]. In addition, in experiment [6], the EC50 was > 53 µM (inactive).

Consider `CSc1ccc(-c2nnn(CC(=O)NCc3ccccc3)n2)cc1`, for which, in [3], the CC50 is > 40 µM (active).

The term AC50 denotes the midpoint of the concentration-response curve, whichever way the signal moves. With `CN1CCN(c2ccccc2NC(=O)c2ccc(-c3ccc(Cl)c(Cl)c3)o2)CC1`, the AC50 in experiment [7] is 4.06 µM (active). For the same molecule, in experiment [3], the CC50 is 25.2 µM (active).

Turning to `CN(C)C(CNC(=O)CCc1nc2ccccc2s1)c1ccccc1` (stereo not given), the EC50 in experiment [2] was 0.0187 µM (active).

As for `OC(COC(c1ccccc1)c1ccccc1)CN1CCN(c2cccc(Cl)c2)CC1` (stereo not given), the CC50 in experiment [3] is > 40 µM (active).

Regarding `COc1ccc(CN2CCCCC2C)cc1C` (stereo not given), the IC50 is 20 µM (active) in experiment [4] and < 0.368 µM (active) in experiment [5]. Moreover, in [6], the EC50 was 2.45 µM (active).

Regarding `CCCn1c(NC(=O)c2ccc(Cl)c(S(=O)(=O)N3CCCC3)c2)nc2ccccc21`, the EC50 in [2] was 1.06 µM (active); in experiment [10] it was > 150 µM (not active); in experiment [11], 6.63 µM (active); in experiment [12], 3.14 µM (active); in [14], 2.63 µM (active); in [15], 11.6 µM (active). Further, the AC50 in experiment [8] was 8.39 µM (active); in experiment [9], 10.9 µM (active); in experiment [13], 38.8 µM (active).

`CCCN1CCN(C(=O)CCCNC(=O)Cn2cnc3sc(C)c(C)c3c2=O)CC1`: the IC50 in experiment [1] is > 64 µM (inactive).

As to `COc1ccccc1NC(=S)NCCSc1ccc(Cl)cc1`, in experiment [1], the IC50 is > 64 µM (inactive).

As to `COc1cc(NC(=O)c2cc(-c3cccnc3)nc3ccc(Br)cc23)cc(OC)c1`, the CC50 in experiment [3] is > 40 µM (active).
